Data as given in patent US20220024882A1, “NOVEL TUMOR ANTIGEN BINDING AGENTS AND USES THEREOF” (ITM Isotopen Technologien München AG, priority 2018, published 2022).

Legend:
Radiolytic stability = assay type: physicochemical; conditions: 250 MBq/500 μL saline, room temperature, with or without L-ascorbic acid
Protocol: Radiolytic stability over time was assessed for Ibu-sPSMA in three independent experiments. For this purpose, Ibu-sPSMA was labeled with ^177Lu in a volume of 120 μL at a specific activity of 50 MBq/nmol with or without the addition of L-ascorbic acid (3 mg). After quality control using HPLC (t=0, radiochemical purity ≥98%), the labeling solutions were diluted with saline to 250 MBq/500 μL and incubated at room temperature. The radioligand's integrity was determined by HPLC after 1 h, 4 h and 24 h incubation time as previously reported (Siwowska et al., Mol. Pharmaceutical 2017, 14, (2), 523-532). The HPLC chromatograms were analyzed by integration of the peaks representing the radiolabeled product, the released ^177Lu as well as degradation products of unknown structure (FIG. 15). A quantitative assessment was performed by expressing the peak area of the intact product as percentage of the sum of integrated peak areas of the entire chromatogram.

[1] = Plasma protein binding, ultrafiltration assay; assay type: in vitro ADME; conditions: incubated in human plasma at 37° C., read-out: fraction of radioligand retained in the filter membrane (serum protein binding) (converted)
Protocol: In short, the PSMA-ligands were labeled with ^177Lu at a specific activity of 50 MBq/nmol and incubated in human plasma samples or PBS at room temperature. The free and plasma-bound fractions were separated using a centrifree ultrafiltration device (4104 centrifugal filter units; Millipore, 30000 Da nominal molecular weight limit, methylcellulose micropartition membranes). The incubated solution was loaded to the ultrafiltration device and centrifuged at 2500 rpm for 40 min at 20° C. Samples from the filtrate were taken and analyzed for radioactivity in a γ-counter. The amount of plasma-bound radioligand was calculated as the fraction of radioactivity measured in the […] relative to the corresponding loading solution (set to 100%). The experiments were performed at least 3 times for each radioligand.
Plasma protein-binding properties of ^177Lu-Ibu-sPSMA were determined using an ultrafiltration assay according to Benesova, M. et al. (Mol Pharm 2018, 15, (3), 934-946). In short, the Ibu-sPSMA-ligand was labeled with ^177Lu at a molar activity of 50 MBq/nmol and incubated in human plasma samples or PBS at 37° C. […] Samples from the filtrate were taken and analyzed for radioactivity in a γ-counter. The amount of plasma-bound radioligand was calculated as the fraction of radioactivity measured in the […] relative to the corresponding loading solution (set to 100%). […]

PSMA = target: T1, PSMA (Homo sapiens, UniProt Q04609); assay: Determination of KD values (PSMA-binding affinity); conditions: PSMA-binding affinity of the 177Lu radioligand
T1 construct: expressed in transfected cells; host or cells: PC-3 PIP (PSMA-transfected PC-3 human prostate cancer cells), from Prof; Martin Pomper
Protocol: The KD values, indicating the PSMA-binding affinity of the novel radioligand, were determined.

[2] = n-Octanol/PBS distribution coefficient (log D); assay type: physicochemical
Protocol: The n-octanol/PBS distribution coefficient of the five exemplified PSMA-binding agents ^177Lu-Ibu-PSMA, ^177Lu-Ibu-Dα-PSMA, ^177Lu-Ibu-Dβ-PSMA, ^177Lu-Ibu-N-PSMA and ^177Lu-Ibu-DAB-PSMA in a n-octanol/PBS system was performed in a similar manner as previously reported (Benesova, M.; Umbricht, C. A.; Schibli, R.; Müller, C. Albumin-binding PSMA ligands: optimization of the tissue distribution profile. Mol Pharm 2018, 15, (3), 934-946).

[3] = tested on: PSMA-negative PC-3 flu tumor cells; assay: Cell uptake, PSMA-negative cells; assay type: cell-based; conditions: after 4 h
Excerpt: (§1) Cell uptake and internalization of ^177Lu-Ibu-PSMA, ^177Lu-Ibu-Dα-PSMA, ^177Lu-Ibu-Dβ-PSMA, ^177Lu-Ibu-N-PSMA and ^177Lu-Ibu-DAB-PSMA were investigated using PSMA-positive PC-3 PIP and PSMA-negative PC-3 flu tumor cells kindly provided by Prof. Dr. Martin Pomper (John Hopkins Institutions, Baltimore, U.S.; Eiber, M.; Fendler, W. P.; Rowe, S. P.; Calais, J.; Hofman, M. S.; Maurer, T.; Schwarzenboeck, S. M.; Kratowchil, C.; Herrmann, K.; Giesel, F. L. Prostate-specific membrane antigen ligands for imaging and therapy. J Nucl Med 2017, 58, (Suppl 2), 67S-76S). Each radioligand was investigated by the performance of experiments performed 3 times in triplicate with PC-3 PIP tumor cell and once in triplicate with PC-3 flu tumor cells.
(§2) Cell uptake and internalization of ^177Lu-Ibu-sPSMA were investigated using PSMA-positive PC-3 PIP and PSMA-negative PC-3 flu tumor cells kindly provided by Prof. Dr. Martin Pomper (Johns Hopkins University School of Medicine, Baltimore, Md., U.S.A.) (Eiber, et al.; J Nucl Med 2017, 58, (Suppl 2), 67S-76S). ^177Lu-Ibu-sPSMA was investigated by performing experiments 3 times in 6 replicates with PC-3 PIP tumor cells and 3 times in 6 replicates with PC-3 flu tumor cells.

[4] = tested on: PSMA-positive PC-3 PIP tumor cells; assay: Cell uptake and internalization, PSMA-positive cells; assay type: cell-based
Excerpt: as §1, §2

T1 sequence (Q04609 whole entry): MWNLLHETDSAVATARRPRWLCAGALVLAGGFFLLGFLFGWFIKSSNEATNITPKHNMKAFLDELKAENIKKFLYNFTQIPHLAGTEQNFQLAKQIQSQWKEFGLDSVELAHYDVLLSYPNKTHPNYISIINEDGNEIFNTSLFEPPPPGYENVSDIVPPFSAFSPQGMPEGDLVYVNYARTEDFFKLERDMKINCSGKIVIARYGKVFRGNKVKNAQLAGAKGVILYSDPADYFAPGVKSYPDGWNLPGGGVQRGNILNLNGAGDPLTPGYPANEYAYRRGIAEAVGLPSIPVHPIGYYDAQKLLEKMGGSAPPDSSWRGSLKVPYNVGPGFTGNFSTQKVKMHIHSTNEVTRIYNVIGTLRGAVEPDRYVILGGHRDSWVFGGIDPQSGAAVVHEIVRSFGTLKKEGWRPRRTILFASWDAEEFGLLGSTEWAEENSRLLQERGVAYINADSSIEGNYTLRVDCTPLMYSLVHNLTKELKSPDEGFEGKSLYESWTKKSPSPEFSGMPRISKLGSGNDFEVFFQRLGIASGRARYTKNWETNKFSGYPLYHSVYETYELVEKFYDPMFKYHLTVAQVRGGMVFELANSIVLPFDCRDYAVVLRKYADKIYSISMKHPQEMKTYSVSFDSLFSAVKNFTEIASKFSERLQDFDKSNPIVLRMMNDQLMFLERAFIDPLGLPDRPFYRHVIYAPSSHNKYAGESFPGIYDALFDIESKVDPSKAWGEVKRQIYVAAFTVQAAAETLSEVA

With CC(C)Cc1ccc(C(C)C(=O)NCC[C@H](NC(=O)CN2CCN(CC(=O)O)CCN(CC(=O)O)CCN(CC(=O)O)CC2)C(=O)NCC2CCC(C(=O)N[C@@H](Cc3ccc4ccccc4c3)C(=O)NCCCC[C@H](NC(=O)N[C@@H](CCC(=O)O)C(=O)O)C(=O)O)CC2)cc1 (stereo partly shown) [^177Lu-Ibu-sPSMA, metal not drawn] the “radiolytic stability (percentage of intact radioligand up to 24 h)” value (Radiolytic stability) was “significantly more stable than ^177Lu-PSMA-617 and all other ibuprofen-derivatized PSMA radioligands”, the fraction unbound [1] was about 0.03 and the Kd (PSMA) was 40 ± 5 nM. For the same compound, the logD [2] was -2.43 ± 0.01, the “uptake in PC-3 flu tumor cells” value [3] was under 0.1% and the internalized fraction ([4]; 2 h incubation) was 18%. It also gave an internalized fraction ([4]; 4 h incubation) of 22%.
